From paper PMC7206119, “RIP1 inhibition blocks inflammatory diseases but not tumor growth or metastases” (Cell Death and Differentiation, 2019)

How the values were obtained:
Assay in all cases: biochemical
Design in all cases: Thermo Fisher SelectScreen kinase panel: Z'-LYTE and Adapta activity, LanthaScreen binding
DYRK4 = DYRK4 (Homo sapiens, UniProt Q9NR20)
Outline: (§1)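 Single-concentration panel: 10 µM GNE684 in KINOMEscan scanMAX binding (468 kinases) and in a 221-kinase panel run as Z'-LYTE/Adapta activity or LanthaScreen binding assays.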

KIT = KIT (Homo sapiens, UniProt P10721)
Outline: as §1

CamKII_alpha = target: T1, CamKII_alpha (Homo sapiens, UniProt Q9UQM7)
T1 construct: gene CAMK2A
Outline: as §1

PAK4 = PAK4 (Homo sapiens, UniProt O96013)
Outline: as §1

PAK6 = PAK6 (Homo sapiens, UniProt Q9NQU5)
Outline: as §1

Aurora_B = target: T2, Aurora_B (Homo sapiens, UniProt Q96GD4)
T2 construct: gene AURKB
Outline: as §1

TBK1 = TBK1 (Homo sapiens, UniProt Q9UHD2)
Outline: as §1

EGFR = EGFR (Homo sapiens, UniProt P00533)
Outline: as §1

DAPK1 = DAPK1 (Homo sapiens, UniProt P53355)
Outline: as §1

FGFR3 = FGFR3 (Homo sapiens, UniProt P22607)
Outline: as §1

ERBB2 = ERBB2 (Homo sapiens, UniProt P04626)
Outline: as §1

RAF1(Y340D,Y341D) = RAF1(Y340D,Y341D) (Homo sapiens, UniProt P04049, Y340D/Y341D)
Outline: as §1

DYRK1A = DYRK1A (Homo sapiens, UniProt Q13627)
Outline: as §1

CaMKI = target: T3, CaMKI (Homo sapiens, UniProt Q14012)
T3 construct: gene CAMK1
Outline: as §1

BRSK1 = BRSK1 (Homo sapiens, UniProt Q8TDC3)
Outline: as §1

JNK3 = target: T4, JNK3 (Homo sapiens, UniProt P53779)
T4 construct: gene MAPK10
Outline: as §1

BRK = target: T5, BRK (Homo sapiens, UniProt Q13882)
T5 construct: gene PTK6
Outline: as §1

WEE1 = WEE1 (Homo sapiens, UniProt P30291)
Outline: as §1

Aurora_A = target: T6, Aurora_A (Homo sapiens, UniProt O14965)
T6 construct: gene AURKA
Outline: as §1

AKT1 = AKT1 (Homo sapiens, UniProt P31749)
Outline: as §1

DNA-PK = target: T7, DNA-PK (Homo sapiens, UniProt P78527)
T7 construct: gene PRKDC
Outline: as §1

TAO2 = target: T8, TAO2 (Homo sapiens, UniProt Q9UL54)
T8 construct: gene TAOK2
Outline: as §1

HIPK1 = HIPK1 (Homo sapiens, UniProt Q86Z02)
Outline: as §1

Chain of PAK6 (Q9NQU5 whole entry): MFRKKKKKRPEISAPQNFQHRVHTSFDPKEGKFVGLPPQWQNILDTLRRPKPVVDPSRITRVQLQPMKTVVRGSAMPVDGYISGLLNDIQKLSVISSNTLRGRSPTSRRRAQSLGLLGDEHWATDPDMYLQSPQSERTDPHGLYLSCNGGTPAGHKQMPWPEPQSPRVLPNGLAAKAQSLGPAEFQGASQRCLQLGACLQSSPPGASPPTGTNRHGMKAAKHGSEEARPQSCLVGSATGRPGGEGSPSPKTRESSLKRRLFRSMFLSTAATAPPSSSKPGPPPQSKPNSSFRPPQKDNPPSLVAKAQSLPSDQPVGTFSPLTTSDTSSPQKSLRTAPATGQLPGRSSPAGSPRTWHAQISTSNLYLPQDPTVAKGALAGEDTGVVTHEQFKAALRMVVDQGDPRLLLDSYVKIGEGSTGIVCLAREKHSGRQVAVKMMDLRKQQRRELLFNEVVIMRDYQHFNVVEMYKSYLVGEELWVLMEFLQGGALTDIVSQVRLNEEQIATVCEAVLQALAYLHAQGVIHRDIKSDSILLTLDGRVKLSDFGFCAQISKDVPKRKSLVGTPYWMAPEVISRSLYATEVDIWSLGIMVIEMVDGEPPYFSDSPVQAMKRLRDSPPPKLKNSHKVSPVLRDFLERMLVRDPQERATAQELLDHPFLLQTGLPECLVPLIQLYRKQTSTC
T3 sequence (Q14012 whole entry): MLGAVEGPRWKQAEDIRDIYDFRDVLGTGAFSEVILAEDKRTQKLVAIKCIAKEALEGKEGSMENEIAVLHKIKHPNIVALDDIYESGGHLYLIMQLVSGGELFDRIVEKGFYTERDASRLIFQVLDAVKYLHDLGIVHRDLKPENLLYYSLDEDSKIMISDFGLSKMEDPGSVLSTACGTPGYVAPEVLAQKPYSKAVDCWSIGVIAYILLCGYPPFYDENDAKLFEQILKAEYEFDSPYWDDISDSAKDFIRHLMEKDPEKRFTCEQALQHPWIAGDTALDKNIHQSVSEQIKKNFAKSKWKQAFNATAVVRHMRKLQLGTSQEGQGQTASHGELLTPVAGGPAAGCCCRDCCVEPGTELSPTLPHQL
T7 sequence (P78527 whole entry): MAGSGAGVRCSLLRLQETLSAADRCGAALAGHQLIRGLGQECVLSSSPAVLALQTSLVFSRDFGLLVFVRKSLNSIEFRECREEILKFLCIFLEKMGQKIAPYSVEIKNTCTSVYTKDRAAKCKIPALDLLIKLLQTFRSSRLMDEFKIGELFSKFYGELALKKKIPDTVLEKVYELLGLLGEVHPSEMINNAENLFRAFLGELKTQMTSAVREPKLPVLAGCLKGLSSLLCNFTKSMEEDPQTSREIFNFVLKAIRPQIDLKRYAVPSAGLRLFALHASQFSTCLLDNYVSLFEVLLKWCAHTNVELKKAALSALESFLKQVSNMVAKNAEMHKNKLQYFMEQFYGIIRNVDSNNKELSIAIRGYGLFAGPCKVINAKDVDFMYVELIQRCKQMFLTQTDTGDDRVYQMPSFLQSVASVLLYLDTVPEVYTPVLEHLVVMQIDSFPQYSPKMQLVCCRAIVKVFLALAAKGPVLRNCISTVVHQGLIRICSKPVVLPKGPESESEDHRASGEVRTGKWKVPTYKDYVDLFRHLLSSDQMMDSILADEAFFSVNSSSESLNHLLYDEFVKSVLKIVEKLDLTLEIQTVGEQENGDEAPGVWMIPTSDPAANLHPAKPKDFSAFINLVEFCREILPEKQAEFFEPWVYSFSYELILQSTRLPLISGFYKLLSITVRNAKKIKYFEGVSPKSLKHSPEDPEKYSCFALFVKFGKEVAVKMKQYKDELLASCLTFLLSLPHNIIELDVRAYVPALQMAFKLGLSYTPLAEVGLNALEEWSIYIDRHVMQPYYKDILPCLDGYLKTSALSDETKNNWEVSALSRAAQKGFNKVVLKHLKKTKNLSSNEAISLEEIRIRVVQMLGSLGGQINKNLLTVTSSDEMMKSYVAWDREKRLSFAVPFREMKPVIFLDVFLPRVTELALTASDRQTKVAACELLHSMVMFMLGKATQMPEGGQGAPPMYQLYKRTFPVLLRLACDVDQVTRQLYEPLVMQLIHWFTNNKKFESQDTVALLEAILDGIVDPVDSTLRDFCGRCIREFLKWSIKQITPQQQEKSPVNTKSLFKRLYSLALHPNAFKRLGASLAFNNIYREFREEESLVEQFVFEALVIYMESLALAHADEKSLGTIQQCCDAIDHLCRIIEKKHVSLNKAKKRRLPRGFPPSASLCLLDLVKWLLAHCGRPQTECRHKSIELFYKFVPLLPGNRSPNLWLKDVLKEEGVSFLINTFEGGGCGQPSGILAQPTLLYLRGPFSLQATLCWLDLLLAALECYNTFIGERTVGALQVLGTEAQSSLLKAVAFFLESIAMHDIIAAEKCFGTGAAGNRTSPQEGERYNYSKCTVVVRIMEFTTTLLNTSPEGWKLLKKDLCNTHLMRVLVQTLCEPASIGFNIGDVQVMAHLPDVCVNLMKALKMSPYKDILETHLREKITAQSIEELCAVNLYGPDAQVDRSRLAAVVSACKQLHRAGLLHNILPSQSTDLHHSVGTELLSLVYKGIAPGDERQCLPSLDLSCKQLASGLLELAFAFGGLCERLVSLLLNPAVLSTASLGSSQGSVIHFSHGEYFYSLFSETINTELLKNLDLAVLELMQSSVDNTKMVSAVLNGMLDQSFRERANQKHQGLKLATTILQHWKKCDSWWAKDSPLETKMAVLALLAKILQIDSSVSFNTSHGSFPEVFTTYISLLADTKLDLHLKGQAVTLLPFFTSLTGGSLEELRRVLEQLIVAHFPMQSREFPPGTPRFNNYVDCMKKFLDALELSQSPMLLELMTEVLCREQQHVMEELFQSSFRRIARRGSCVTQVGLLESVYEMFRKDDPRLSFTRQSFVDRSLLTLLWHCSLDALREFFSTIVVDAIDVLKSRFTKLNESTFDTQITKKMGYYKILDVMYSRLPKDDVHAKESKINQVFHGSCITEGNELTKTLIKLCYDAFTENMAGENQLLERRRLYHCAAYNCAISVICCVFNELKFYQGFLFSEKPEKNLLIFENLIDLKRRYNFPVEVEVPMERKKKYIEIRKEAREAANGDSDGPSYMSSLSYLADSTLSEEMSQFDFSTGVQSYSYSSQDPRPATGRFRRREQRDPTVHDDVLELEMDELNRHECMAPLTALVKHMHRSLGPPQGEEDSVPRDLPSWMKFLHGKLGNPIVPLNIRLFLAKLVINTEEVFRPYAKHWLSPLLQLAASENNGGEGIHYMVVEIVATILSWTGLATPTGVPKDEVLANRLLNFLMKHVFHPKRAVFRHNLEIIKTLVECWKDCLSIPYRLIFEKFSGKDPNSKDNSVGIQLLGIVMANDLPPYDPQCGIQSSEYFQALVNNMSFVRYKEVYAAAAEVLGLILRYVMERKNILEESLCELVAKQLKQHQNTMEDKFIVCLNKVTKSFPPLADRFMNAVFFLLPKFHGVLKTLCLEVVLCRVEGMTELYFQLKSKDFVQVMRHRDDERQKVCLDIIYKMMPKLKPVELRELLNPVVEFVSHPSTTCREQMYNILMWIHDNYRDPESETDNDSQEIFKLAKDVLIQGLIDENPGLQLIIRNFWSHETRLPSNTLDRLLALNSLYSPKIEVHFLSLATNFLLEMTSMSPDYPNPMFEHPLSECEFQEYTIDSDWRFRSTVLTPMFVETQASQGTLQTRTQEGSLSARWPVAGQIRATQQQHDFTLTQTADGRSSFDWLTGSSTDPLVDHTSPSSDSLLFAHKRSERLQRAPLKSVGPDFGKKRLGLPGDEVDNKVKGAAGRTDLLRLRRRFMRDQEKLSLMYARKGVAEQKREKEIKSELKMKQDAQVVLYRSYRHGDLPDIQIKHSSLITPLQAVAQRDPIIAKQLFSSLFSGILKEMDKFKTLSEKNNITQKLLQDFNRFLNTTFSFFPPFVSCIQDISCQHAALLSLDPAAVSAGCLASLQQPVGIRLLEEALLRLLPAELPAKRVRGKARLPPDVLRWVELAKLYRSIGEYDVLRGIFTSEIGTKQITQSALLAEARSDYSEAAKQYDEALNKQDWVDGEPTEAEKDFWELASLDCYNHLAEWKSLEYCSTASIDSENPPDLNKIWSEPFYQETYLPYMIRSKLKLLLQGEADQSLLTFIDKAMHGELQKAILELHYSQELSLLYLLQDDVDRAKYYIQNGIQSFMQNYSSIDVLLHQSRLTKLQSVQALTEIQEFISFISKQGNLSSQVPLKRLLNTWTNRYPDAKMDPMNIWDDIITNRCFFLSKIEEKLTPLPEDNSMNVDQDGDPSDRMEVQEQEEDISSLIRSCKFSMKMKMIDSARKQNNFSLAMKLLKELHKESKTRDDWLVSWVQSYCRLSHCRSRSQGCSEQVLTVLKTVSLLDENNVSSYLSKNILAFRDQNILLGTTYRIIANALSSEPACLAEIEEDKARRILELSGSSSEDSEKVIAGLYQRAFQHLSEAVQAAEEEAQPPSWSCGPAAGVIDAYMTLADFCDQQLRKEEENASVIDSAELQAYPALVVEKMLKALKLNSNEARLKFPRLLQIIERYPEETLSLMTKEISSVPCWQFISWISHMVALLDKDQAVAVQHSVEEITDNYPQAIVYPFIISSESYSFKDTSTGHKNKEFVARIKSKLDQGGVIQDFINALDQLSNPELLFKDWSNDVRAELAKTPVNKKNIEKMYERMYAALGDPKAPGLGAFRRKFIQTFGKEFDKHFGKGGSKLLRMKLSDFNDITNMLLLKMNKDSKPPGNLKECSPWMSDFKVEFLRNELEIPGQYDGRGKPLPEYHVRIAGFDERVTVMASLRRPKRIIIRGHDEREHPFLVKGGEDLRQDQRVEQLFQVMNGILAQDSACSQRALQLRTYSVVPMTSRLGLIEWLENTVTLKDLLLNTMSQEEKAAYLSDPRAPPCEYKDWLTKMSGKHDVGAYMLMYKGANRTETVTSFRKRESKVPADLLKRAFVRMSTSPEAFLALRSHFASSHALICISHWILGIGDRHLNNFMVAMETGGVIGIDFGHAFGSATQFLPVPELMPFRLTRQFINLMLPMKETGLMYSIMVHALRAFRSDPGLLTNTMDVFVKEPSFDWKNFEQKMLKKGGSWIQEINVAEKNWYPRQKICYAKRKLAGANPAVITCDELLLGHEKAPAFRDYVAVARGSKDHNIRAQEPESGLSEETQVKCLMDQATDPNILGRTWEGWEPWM

## COc1cc2c(cn1)N(C)C(=O)[C@@H](NC(=O)c1nc3n(n1)[C@H](c1ccccc1)CC3)CC2 [GNE684, (S)-N-((S)-7-methoxy-1-methyl-2-oxo-2,3,4,5-tetrahydro-1H-pyrido[3,4-b]azepin-3-yl)-5-phenyl-6,7-dihydro-5H-pyrrolo[1,2-b][1,2,4]triazole-2-carboxamide]
DYRK4
  inhibition at 10 µM: 2%
KIT
  inhibition at 10 µM: 3%
CamKII_alpha
  inhibition at 10 µM: 6.5%
PAK4
  inhibition at 10 µM: 14%
PAK6
  inhibition at 10 µM: 4.5%
Aurora_B
  inhibition at 10 µM: 6.5%
TBK1
  inhibition at 10 µM: 1%
EGFR
  inhibition at 10 µM: 2.5%
DAPK1
  inhibition at 10 µM: -11.5%
FGFR3
  inhibition at 10 µM: -1.5%
ERBB2
  inhibition at 10 µM: -5.5%
RAF1(Y340D,Y341D)
  inhibition at 10 µM: -2%
DYRK1A
  inhibition at 10 µM: 2%
CaMKI
  inhibition at 10 µM: -5.5%
BRSK1
  inhibition at 10 µM: 2.5%
JNK3
  inhibition at 10 µM: 3%
BRK
  inhibition at 10 µM: -1%
WEE1
  inhibition at 10 µM: 0.5%
Aurora_A
  inhibition at 10 µM: 3%
AKT1
  inhibition at 10 µM: 2.5%
DNA-PK
  inhibition at 10 µM: 4%
TAO2
  inhibition at 10 µM: 1%
HIPK1
  inhibition at 10 µM: 0%
